Results from ChEMBL document CHEMBL1131692, “A study of novel antiallergic agents with eosinophilic infiltration inhibiting action” (Bioorg Med Chem Lett, 1999).

Species: Cavia porcellus
Assay: Evaluated for antihistamine action using guinea pig ilea
Assay type: functional
Conditions: read-out: pA2 (converted)

Question: How did the Kb turn out when Cc1cc(OCCCCCCCCN2CCN(C(c3ccccc3)c3ccccc3)CC2)c(C)c(C)c1O was run?
Answer: The Kb was 275 nM.

Question: With Cc1cc(OCCCN2CCN(C(c3ccccc3)c3ccccc3)CC2)c(C)c(C)c1O as the molecule, how does the Kb read?
Answer: The Kb was 74.1 nM.

Question: Which Kb does the source give for Cc1cc(OCCCCCCN2CCN(C(c3ccccc3)c3ccccc3)CC2)c(C)c(C)c1O here?
Answer: Its Kb is 155 nM.

Question: For Cc1cc(OCCN2CCN(C(c3ccccc3)c3ccccc3)CC2)c(C)c(C)c1O, which Kb is on record?
Answer: The Kb was 117 nM.

Question: How did the Kb turn out when Cc1cc(OCCCCCCCCCCN2CCN(C(c3ccccc3)c3ccccc3)CC2)c(C)c(C)c1O was run?
Answer: Its Kb is 407 nM.

Question: Which Kb does the source give for Cc1cc(OCCCCCN2CCN(C(c3ccccc3)c3ccccc3)CC2)c(C)c(C)c1O here?
Answer: The Kb was 151 nM.

Question: With O=c1[nH]c2ccccc2n1CCCN1CCN(C(c2ccccc2)c2ccccc2)CC1 [OXATOMIDE] as the molecule, how does the Kb read?
Answer: Its Kb is 45.7 nM.

Question: Cc1cc(OCCCCN2CCN(C(c3ccccc3)c3ccccc3)CC2)c(C)c(C)c1O was tested. Which Kb did it give?
Answer: The Kb was 77.6 nM.
